# Patent US8859625B2, “Methods to prepare penta-1,4-dien-3-ones and substituted cyclohexanones and derivatives with antitumoral and antiparasitic properties, the compounds and their uses” (Universidade Bandeirante de Sao Paulo-Academia, Paulista …, priority 2006, dated 2014)
# Experiments:
# [1] = tested on: B16F10 melanoma; assay: B16F10 melanoma tumors implanted in C57BL/6J mice, intraperitoneal treatment; tumor area and volume; assay type: in vivo; details: diluted in Miglyol 810, intraperitoneal 1.15 μg/kg daily, to Day 14; tumor volume and area
# Procedure: After the Day 4 of tumor cells implant (2×10^5 tumoral cells/mL), the animals were splitted in two groups: the test group, treated with HB-1 compound diluted in Miglyol 810® and the control group, which received only the diluent (Miglyol 810®) in the same volume as the test group. The animals were daily treated by intraperitoneal route. Concomitantly, measurements of animal weight and tumor size (two measures—length×width) were performed and tumor aspect registered by photographies.
# After the Day 14, the animals were sacrificed by cervical displacement, tumors were removed, and necropsy performed to remove all internal organs and macroscopic lesions for hystopathologic analysis.
# Tumoral parameters were obtained by calculation of tumor average area (A) and volume (V), through the following formulas A=πR^2 and V=4/3πR^3, where (R=average tumor radius). […]
# After tumoral cell implant, the animals were treated with the HB-2 compound diluted in Miglyol 810® and with (HB2+HB-1) conjugate whereas the control group received the same volume of diluent and by the same administration route (intraperitoneal—100 μl). Daily, the animals received the compounds (100 μl) and the control group received Miglyol 810®, the animals were weighted, and the tumors were measured (length×width) and photographed. […]
# [2] = tested on: Leishmania (L) amazonensis promastigote forms (isolate LV79); assay: Promastigote proliferation in RPMI medium, Neubauer chamber count; assay type: cell-based
# Procedure: Compounds are solubilized with dimethyl sulfoxide (DMSO) to produce a stock solution from which samples with different concentrations are obtained, by adding the culture medium in sufficient volume as required to attain the first desired concentration with the other concentrations being obtained by serial dilution of this first one, at ratio 2. The cultures are incubated at 22° C. or 34° C. for promastigotes and amastigotes, respectively.
# As a positive control for parasite viability evaluation, only culture medium and parasite, without any other addition, were used. As toxicity control for the solvent present in compound composition, parasite forms were incubated with DMSO diluted in culture medium.
# To quantify the promastigotes, Neubauer chambers are used and the cultures are quantified every 24 hours throughout the incubation period scheduled for each experiment. The samples are prepared from an initial dilution of 20 μL of the culture into 180 μL of the saline solution formulated (PBS+2% formaldehyde) to obtain a 1/10 dilution. Whenever necessary, serial dilutions may be performed from the first dilution. For all experiments, parasite forms should be incubated with several HB-1 concentrations, its respective controls with DMSO (we should have in mind that the initial HB-1 stock solution was prepared with DMSO and that its toxicity in relation to the parasite forms have to be assessed) and the normal culture, without any component additioned to the medium. Countings are performed as duplicates, by two different people and the final result is expressed as the arithmetic average from the two countings. The same procedure is employed to quantify the amastigote forms.
# Leishmania (L) amazonensis promastigote forms (isolade LV79, 1st passage in culture medium, day 7 of culture, stationary phase) are incubated at a proportion of 10^6 promastigotes/mL of RPMI medium, 3.0 mL final volume, in the presence of different concentrations of HB-1 and of the respective controls in DMSO. The effect of HB-1 compound on the proliferation of Leishmania (L) amazonensis promastigotes-RPMI medium is shown in the next Table and in FIG. 34.
smiles,measurement,setting,value
"COc1cc(C=CC(=O)C=Cc2ccc(O)c(OC)c2)ccc1O [HB-1, 1,5-Bis-(4-hydroxy-3-methoxy-phenyl)-penta-1,4-dien-3-one]",percentage of inhibitory treatment for B16F10 melanoma,[1],higher than 98%
same,N^o. of promastigotes/mL (×10^6),"[2]; HB-1 3.12 μg/mL, 24 hours",1.6 ×10^6 promastigotes/mL
same,N^o. of promastigotes/mL (×10^6),"[2]; HB-1 3.12 μg/mL, 48 hours",2.1 ×10^6 promastigotes/mL
same,N^o. of promastigotes/mL (×10^6),"[2]; HB-1 3.12 μg/mL, 72 hours",2.1 ×10^6 promastigotes/mL
same,N^o. of promastigotes/mL (×10^6),"[2]; HB-1 3.12 μg/mL, 144 hours",2.4 ×10^6 promastigotes/mL
same,N^o. of promastigotes/mL (×10^6),"[2]; HB-1 6.25 μg/mL, 24 hours",0.8 ×10^6 promastigotes/mL
same,N^o. of promastigotes/mL (×10^6),"[2]; HB-1 6.25 μg/mL, 48 hours",1.0 ×10^6 promastigotes/mL
same,N^o. of promastigotes/mL (×10^6),"[2]; HB-1 6.25 μg/mL, 72 hours",0.7 ×10^6 promastigotes/mL
same,N^o. of promastigotes/mL (×10^6),"[2]; HB-1 6.25 μg/mL, 144 hours",0.3 ×10^6 promastigotes/mL
same,N^o. of promastigotes/mL (×10^6),"[2]; HB-1 12.5 μg/mL, 24 hours",0.7 ×10^6 promastigotes/mL
same,N^o. of promastigotes/mL (×10^6),"[2]; HB-1 12.5 μg/mL, 48 hours",0 ×10^6 promastigotes/mL
same,N^o. of promastigotes/mL (×10^6),"[2]; HB-1 12.5 μg/mL, 72 hours",0 ×10^6 promastigotes/mL
same,N^o. of promastigotes/mL (×10^6),"[2]; HB-1 12.5 μg/mL, 144 hours",0 ×10^6 promastigotes/mL
same,N^o. of promastigotes/mL (×10^6),"[2]; HB-1 25 μg/mL, 24 hours",0.5 ×10^6 promastigotes/mL
same,N^o. of promastigotes/mL (×10^6),"[2]; HB-1 25 μg/mL, 48 hours",0 ×10^6 promastigotes/mL
same,N^o. of promastigotes/mL (×10^6),"[2]; HB-1 25 μg/mL, 72 hours",0 ×10^6 promastigotes/mL
same,N^o. of promastigotes/mL (×10^6),"[2]; HB-1 25 μg/mL, 144 hours",0 ×10^6 promastigotes/mL
same,N^o. of promastigotes/mL (×10^6),"[2]; HB-1 50 μg/mL, 24 hours",0.1 ×10^6 promastigotes/mL
same,N^o. of promastigotes/mL (×10^6),"[2]; HB-1 50 μg/mL, 48 hours",0 ×10^6 promastigotes/mL
same,N^o. of promastigotes/mL (×10^6),"[2]; HB-1 50 μg/mL, 72 hours",0 ×10^6 promastigotes/mL
same,N^o. of promastigotes/mL (×10^6),"[2]; HB-1 50 μg/mL, 144 hours",0 ×10^6 promastigotes/mL
same,inhibitory effect (=mortality),"[2]; HB-1 100 μg/mL to 12.5 μg/mL, 48 hours",100%
same,N^o. of promastigotes/mL (×10^6),"[2]; HB-1 100 μg/mL, 24 hours",0 ×10^6 promastigotes/mL
same,N^o. of promastigotes/mL (×10^6),"[2]; HB-1 100 μg/mL, 48 hours",0 ×10^6 promastigotes/mL
same,N^o. of promastigotes/mL (×10^6),"[2]; HB-1 100 μg/mL, 72 hours",0 ×10^6 promastigotes/mL
same,N^o. of promastigotes/mL (×10^6),"[2]; HB-1 100 μg/mL, 144 hours",0 ×10^6 promastigotes/mL
